The record followed here is ChEMBL document CHEMBL3297666, “Antibacterial inhibitors of Gram-positive thymidylate kinase: structure-activity relationships and chiral preference of a new hydrophobic binding region” (J Med Chem, 2014).

Each structure is given as a SMILES string. Calls of active or inactive are those of the source. The calls are words filed in the database; no cut-off is given here.

In general, IC50 refers to the concentration that gives 50% inhibition. In general, MIC refers to the lowest concentration that inhibits growth of the organism. What is called logD is the decadic logarithm of the distribution of all forms, ionised or not, between an organic phase and buffer at a given pH. One may read the fraction unbound as the share of the substance not bound to proteins or other matrix. Higher therefore signals much free substance. By clearance is commonly meant the rate of elimination divided by the concentration. Usually MIC90 stands for an inhibitory concentration at the 90% level, which refers to growth in some studies and to a panel of isolates in others.

Data set [1] is described as follows: Inhibition of Staphylococcus aureus TMK assessed as decrease in ATP production using dTDP and ADP as substrate after 3.5 hrs by luciferin/luciferase based luminescence analysis.
A short description of data set [2]: Retention time of the compound by LC-MS method. It is filed as physicochemical.
Data set [3] deals with Staphylococcus aureus. The data set is described as follows: Antibacterial activity against Staphylococcus aureus ARC 516 assessed as growth inhibition by broth microdilution method. It is filed as functional. On the technique in general: Dilution methods test growth across graded concentrations, often in twofold steps.
Data set [4] deals with Staphylococcus aureus. The data set is described as follows: Antibacterial activity against methicillin-resistant and quinolone-resistant Staphylococcus aureus ARC 517 assessed as growth inhibition by broth microdilution method. It is filed as functional.
Data set [5] in a line: Octanol-sodium phosphate buffer partition coefficient, log D of the compound at pH 7.4 by shake-flask method.
Data set [6] in a line: Fraction unbound in human plasma at 10 uM after 5 hrs by rapid equilibrium dialysis method. It is filed as ADME, cell-free. Background: In equilibrium dialysis only unbound substance equilibrates across the membrane.
A short description of data set [7]: Fraction unbound in mouse plasma at 10 uM after 5 hrs by rapid equilibrium dialysis method. It is filed as ADME, cell-free.
A short description of data set [8]: In vivo clearance in Wistar rat at 5 to 10 mg/kg, iv administered as bolus dose. It is filed as ADME, organism-based. Details: dose 5-10 mg/kg, route intravenous.
The next data set has as its system Streptococcus pneumoniae. In words: Antibacterial activity against Streptococcus pneumoniae ARC 2481 assessed as growth inhibition by broth microdilution method. It is filed as functional.
The subject of the next data set is Streptococcus pyogenes. In words: Antibacterial activity against Streptococcus pyogenes ARC 2834 assessed as growth inhibition by broth microdilution method. It is filed as functional.
The test system of data set [9] is Staphylococcus epidermidis. The data set is described as follows: Antibacterial activity against Staphylococcus epidermidis ARC 323 assessed as growth inhibition by broth microdilution method. It is filed as functional.
In another data set the test system is Enterococcus faecium. In words: Antibacterial activity against linezolid-resistant Enterococcus faecium ARC 1239 assessed as growth inhibition by broth microdilution method. It is filed as functional.
For the next data set, the system named is Enterococcus faecalis. The data set is described as follows: Antibacterial activity against vancomycin-resistant Enterococcus faecalis ARC 1618 assessed as growth inhibition by broth microdilution method. It is filed as functional.
In the next data set the test system is Escherichia coli. The data set is described as follows: Antibacterial activity against Escherichia coli ARC 523 assessed as growth inhibition by broth microdilution method. It is filed as functional.
For another data set, the system named is Pseudomonas aeruginosa. In words: Antibacterial activity against Pseudomonas aeruginosa ARC 545 assessed as growth inhibition by broth microdilution method. It is filed as functional.
The nature of data set [10]: Ratio of IC50 for human […] to IC50 for Staphylococcus aureus TMK.
For data set [11], the system named is Staphylococcus aureus. In words: Antibacterial activity against methicillin-sensitive Staphylococcus aureus ARC 516 in mouse neutropenic thigh infection model assessed as inhibition of progression of bacterial infection at 100 to 200 mg/kg/day, ip administered once daily starting 2 hrs after infection measured 24 hrs after drug dosing. It is filed as functional, organism-based.

The test system of data set [12] is Staphylococcus aureus. The data set is described as follows: Antibacterial activity against methicillin-sensitive Staphylococcus aureus ARC 516 in mouse neutropenic thigh infection model assessed as reduction in number of colony-forming units at 400 mg/kg/day, ip administered bid every 12 hrs as equal divided dose starting 2 hrs after infection measured 24 hrs after drug dosing relative to control. It is filed as functional. Conditions: route intraperitoneal.

Data set [13] is described as follows: fT>MIC in mouse neutropenic thigh infection model infected with methicillin-sensitive Staphylococcus aureus ARC 516. Details: species or system Thigh muscle.
Data set [14] is described as follows: Cytotoxicity against human A549 cells. It is filed as cell-based. Conditions: read-out: MIC.
Data set [15] concerns Staphylococcus aureus. In words: Antibacterial activity against Staphylococcus aureus assessed as bacterial killing. It is filed as functional, organism-based.
The subject of data set [16] is Staphylococcus aureus. In words: Antibacterial activity against Staphylococcus aureus assessed as log cell killing at greater than and equals to 0.5x MIC measured after 4 hrs. It is filed as functional.
Data set [17] concerns Staphylococcus aureus. In words: Antibacterial activity against Staphylococcus aureus assessed as bacterial killing at 0.5 to 1x MIC measured after 24 hrs. It is filed as functional, organism-based.

As for `Cc1cn([C@H]2CCCN([C@@H](CC(C)C)c3ccc(C(=O)O)c(Oc4cccc(Cl)c4)c3F)C2)c(=O)[nH]c1=O`, the IC50 in data set [1] is 1 nM. This molecule had a Retention_time in data set [2] of 2 min. Moreover, the MIC in the data set on Staphylococcus aureus [3] was 0.5 µg/mL; in the data set on Staphylococcus aureus [4] it was 0.5 µg/mL; in the data set with Streptococcus pyogenes, 2 µg/mL; in data set [9], 4 µg/mL; in the data set with Enterococcus faecium it was 2 µg/mL; in the data set on Enterococcus faecalis it was 4 µg/mL. In addition, the MIC with Escherichia coli and in the data set on Pseudomonas aeruginosa was above 64 µg/mL in each case. The logD in data set [5] was 0.57. The fraction unbound at 5 h, 10 µM was 0.007 in [6] and 0.005 in [7]. In [8], this molecule gave a clearance of 38 mL/min/kg. In addition, the MIC90 in the data set on Streptococcus pneumoniae amounted to 0.13 µg/mL. Besides, in data set [10], the Ratio IC50 is above 25000. In addition, the inhibition entry with Staphylococcus aureus [11] was “Active”. In the data set on Staphylococcus aureus [12], the “fold change (FC)” value turned out to be 10. Further, the “fT>MIC” value in data set [13] was 27%.

As to `Cc1cn([C@H]2CCCN([C@H](CC(C)(C)C)c3ccc(C(=O)O)c(Oc4cccc(Br)c4)c3)C2)c(=O)[nH]c1=O`, the IC50 in [1] is 0.8 nM. For the same molecule, the MIC90 came to 1 µg/mL with Staphylococcus aureus [3], 1 µg/mL in the data set with Staphylococcus aureus [4], 0.03 µg/mL in the data set with Streptococcus pneumoniae and 0.5 µg/mL in the data set with Streptococcus pyogenes. Moreover, the fraction unbound at 5 h, 10 µM was 0.032 in [6] and below 0.003 in data set [7]. In addition, in data set [8], the clearance is 42 mL/min/kg. In addition, the MIC in [9] was 2 µg/mL; in the data set with Enterococcus faecium it was 0.25 µg/mL; in the data set with Enterococcus faecalis, 1 µg/mL; in the data set on Escherichia coli, above 64 µg/mL; in the data set with Pseudomonas aeruginosa it was above 64 µg/mL. Besides, the Ratio IC50 in data set [10] is above 25000. In addition, in data set [14], the MCC was above 64 µg/mL.

`Cc1cn([C@H]2CCCN([C@H](CC(C)C)c3ccc(C(=O)O)c(Oc4cccc(Cl)c4)c3F)C2)c(=O)[nH]c1=O`: in data set [1], the IC50 is 1 nM. Further, the MIC with Staphylococcus aureus [3] was 0.25 µg/mL; in the data set on Staphylococcus aureus [4] it was 0.5 µg/mL; in data set [9], 2 µg/mL; with Enterococcus faecium, 2 µg/mL; with Enterococcus faecalis, 8 µg/mL; in the data set with Escherichia coli, above 64 µg/mL. Besides, in the data set with Pseudomonas aeruginosa, the MIC is above 64 µg/mL. The MIC90 in the data set on Staphylococcus aureus [3] was found to be 2 µg/mL; with Staphylococcus aureus [4], 2 µg/mL; in the data set on Streptococcus pneumoniae it was 0.13 µg/mL; with Streptococcus pyogenes, 2 µg/mL. Moreover, in data set [5], the logD was 0.92. Further, the fraction unbound at 5 h, 10 µM in data set [6] is 0.013; in [7], below 0.01. The molecule also yielded a clearance in [8] of 84 mL/min/kg. In addition, the Ratio IC50 in data set [10] is above 25000.

`CC[C@H](c1ccc(C(=O)O)c(Oc2cccc(Cl)c2)c1)N1CCC[C@H](n2cc(C)c(=O)[nH]c2=O)C1`: the IC50 in data set [1] worked out at 14 nM. For the same molecule, the MIC in the data set on Staphylococcus aureus [3] and in the data set on Staphylococcus aureus [4] was 2 µg/mL each time. In addition, the logD in data set [5] was determined as 0.22. In addition, the Activity entry in the data set on Staphylococcus aureus [15] is “Dose-dependent effect”. Further, the LCK with Staphylococcus aureus [16] is reported as above 3. Further, in the data set on Staphylococcus aureus [17], the result was inactive.

Consider `CC[C@@H](c1ccc(C(=O)O)c(Oc2cccc(Cl)c2)c1OC)N1CCC[C@H](n2cc(C)c(=O)[nH]c2=O)C1`, for which the IC50 in data set [1] turned out to be 3 nM. In data set [2], this molecule showed a Retention_time of 1.65 min. The MIC in the data set with Staphylococcus aureus [3] is 4 µg/mL; in the data set on Staphylococcus aureus [4] it was 2 µg/mL; in data set [9], 4 µg/mL; with Enterococcus faecium it was 8 µg/mL; in the data set with Enterococcus faecalis it was above 8 µg/mL; in the data set with Escherichia coli, above 64 µg/mL. Moreover, the MIC with Pseudomonas aeruginosa was above 64 µg/mL. The MIC90 in the data set on Staphylococcus aureus [3] worked out at 4 µg/mL; with Staphylococcus aureus [4] it was 4 µg/mL; with Streptococcus pneumoniae, 2 µg/mL; with Streptococcus pyogenes, 4 µg/mL. Besides, the logD in data set [5] is -0.02. For the same molecule, the figures for the fraction unbound at 5 h, 10 µM in data set [6] and in data set [7] were 0.11 and 0.011, respectively. Further, the clearance in data set [8] stood at 73 mL/min/kg. Besides, the Ratio IC50 in data set [10] was above 25000. Further, the MCC in data set [14] is above 64 µg/mL.
